# Molecular target: T1, rat A2B receptors (rA2B) (Rattus norvegicus, UniProt P29276)
# T1 construct: expressed in transfected cells; membranes)
# T1 sequence (P29276 1-332): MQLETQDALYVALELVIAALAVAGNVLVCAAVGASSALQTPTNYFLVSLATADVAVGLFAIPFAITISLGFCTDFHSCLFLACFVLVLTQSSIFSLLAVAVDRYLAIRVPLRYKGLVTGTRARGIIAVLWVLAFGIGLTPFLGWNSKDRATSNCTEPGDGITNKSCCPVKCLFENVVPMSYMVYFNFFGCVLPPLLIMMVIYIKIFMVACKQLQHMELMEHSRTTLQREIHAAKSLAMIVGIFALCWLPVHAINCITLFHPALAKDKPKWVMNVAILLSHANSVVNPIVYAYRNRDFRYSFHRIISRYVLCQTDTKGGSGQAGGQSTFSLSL
# Assay: Radioligand binding, displacement of specific [125I]ABOPX binding
# Settings: displacement of specific [125I]ABOPX binding at rat A2B receptors expressed in HEK-293 cells; read-out: RatA2B Ki
# Excerpt: The rat A2B receptor cDNA was subcloned into the expression plasmid pDoubleTrouble using techniques described in Robeva, A. et al., Biochem. Pharmacol., 51, 545-555 (1996). The plasmid was amplified in competent JM109 cells and plasmid DNA isolated using Wizard Megaprep columns (Promega Corporation, Madison, Wis.). A2B adenosine receptors were introduced into HEK-293 cells by means of Lipofectin as described in Felgner, P. L. et al., Proc. Natl. Acad. Sci. USA, 84, 7413-7417 (1987).
# Transfected HEK cells were grown under 5% CO2/[…] humidified atmosphere at a temperature of 37° C. Colonies were selected by growth of cells in 0.6 mg/mL G418. Transfected cells were maintained in DMEM supplemented with Hams F 12 nutrient mixture (1/1), 10% newborn calf serum, 2 mM glutamine and containing 50 IU/mL penicillin, […], and 0.2 mg/mL Geneticin (G418, Boehringer Mannheim). Cells were cultured in 10 cm diameter round plates and subcultured when grown confluent (approximately after 72 hours).
# At A2B receptors: Confluent monolayers of HEK-A2B cells were washed with PBS followed by ice cold Buffer A (10 mM HEPES, 10 mM EDTA, pH 7.4) with protease inhibitors (10 μg/mL benzamidine, 100 μM phenylmethanesulfonyl fluoride, and 2 μg/mL of each aprotinin, pepstatin and leupeptin). The cells were homogenized in a Polytron (Brinkmann) for 20s, centrifuged at 30,000 ×g, and the pellets washed twice with buffer HE (10 mM HEPES, 1 mM EDTA, pH 7.4 with protease inhibitors). The final pellet was resuspended in buffer HE, supplemented with 10% sucrose and frozen in aliquots at −80° C. For binding assays membranes were thawed and diluted 5-10 fold with HE to a final protein concentration of approximately 1 mg/mL. To determine protein concentrations, membranes, and bovine serum albumin standards were dissolved in 0.2% NaOH/0.01% SDS and protein determined using fluorescamine fluorescence. Stowell, C. P. et al., Anal. Biochem., 85, 572-580 (1978).
# Saturation binding assays for rat A2B adenosine receptors were performed with [^3H]ZM214,385 (17 Ci/mmol, Tocris Cookson, Bristol UK) (Ji, X. et al., Drug Design Discov., 16, 216-226 (1999)) or ^125I-ABOPX (2200 Ci/mmol). To prepare 125I-ABOPX, 10 μL of 1 mM ABOPX in methanol/1 M NaOH (20:1) was added to 50 μL of 100 mM phosphate buffer, pH 7.3. One or 2 mCi of Na^125I was added, followed by 10 μL of 1 mg/mL chloramine-T in water. After incubation, 20 minutes at room temperature, 50 μL of 10 mg/mL Na-metabisulfite in water was added to quench the reaction. The reaction mixture was applied to a C18 HPLC column, eluting with a mixture of methanol and 5 mM phosphate, pH 6.0. After 5 min at 35% methanol, the methanol concentration was ramped to 100% over 15 min. Unreacted ABOPX eluted in 11-12 minutes; ^125I-ABOPX eluted at 18-19 min in a yield of 50-60% with respect to the initial ^125I.
# In equilibrium binding assays the ratio of ^127I/^125I-ABOPX was 10-20/1. Radioligand binding experiments were performed in triplicate with 20-25 μg membrane protein in a total volume of 0.1 mL HE buffer supplemented with 1 U/mL adenosine deaminase and 5 mM MgCl2. The incubation time was 3 h at 21° C. Nonspecific binding was measured in the presence of 100 μM NECA. Competition experiments were carried out using 0.6 nM ^125I-ABOPX. Membranes were filtered on Whatman GF/C filters using a Brandel cell harvester (Gaithersburg, Md.) and washed 3 times over 15-20 seconds with ice cold buffer (10 mM Tris, 1 mM MgCl2, pH 7.4). Bmax and KD values were calculated by Marquardt's nonlinear least squares interpolation for single a site binding models. Marquardt, D. M., J. Soc. Indust. Appl. Math., 11, 431-441.21 (1963). Ki values for different compounds were derived from IC50 values as described. Linden, J., J. Cycl. Nucl. Res., 8, 163-172 (1982). Data from replicate experiments are tabulated as means ±SEM. […]
row,Ki [nM],SMILES
1,100 to 500,"CCCn1c(=O)c2[nH]c(-c3ccc(NN)nc3)nc2n(CCC)c1=O [Compound 1, 1,3-Dipropyl-8-[6-hydrazino-3-pyridyl]xanthine]"
2,500 to 5000,"CCn1c(=O)c2[nH]c(-c3ccc(-n4nc(C)cc4-c4ccccc4)nc3)nc2n(CC)c1=O [Compound 2, 1,3-diethyl-8-(6-(3-methyl-5-phenyl-1H-pyrazol-1-yl)pyridin-3-yl)-1H-purine-2,6(3H,7H)-dione]"
3,100 to 500,"CCn1c(=O)c2[nH]c(-c3ccc4nnc(C(F)(F)F)n4c3)nc2n(CC)c1=O [Compound 3, 1,3-Diethyl-8-(3-(trifluoromethyl)-[1,2,4]triazolo[4,3,a]pyridin-6-yl)-1H-purine-2,6(3H,7H)-dione]"
4,100 to 500,"CCn1c(=O)c2[nH]c(-c3ccc4nnc(C)n4c3)nc2n(CC)c1=O [Compound 4, 1,3-Diethyl-8-(3-methyl-[1,2,4]triazolo[4,3,a]pyridin-6-yl)-1H-purine-2,6(3H,7H)-dione]"
5,100 to 500,"CCCn1c(=O)c2[nH]c(-c3ccc(-n4nc(C)cc4-c4ccccc4)nc3)nc2n(CCC)c1=O [Compound 5, 8-(6-(3-methyl-5-phenyl-1H-pyrazol-1-yl)pyridin-3-yl)-1,3-Dipropyl-1H-purine-2,6(3H,7H)-dione]"
6,100 to 500,"CCCn1c(=O)c2[nH]c(-c3ccc(-n4nc(C(F)(F)F)cc4-c4cccs4)nc3)nc2n(CCC)c1=O [Compound 8, 8-(6-(3-(trifluoromethyl)-5-(thiophen-2-yl)-1H-pyrazol-1-yl)pyridin-3-yl)-1,3-Dipropyl-1H-purine-2,6(3H, 7H)-dione]"
7,< 100,"CCCn1c(=O)c2[nH]c(-c3ccc(-n4nc(C(F)(F)F)cc4-c4ccco4)nc3)nc2n(CCC)c1=O [Compound 9, 8-(6-(3-(trifluoromethyl)-5-(furan-2-yl)-1H-pyrazol-1-yl)pyridin-3-yl)-1,3-Dipropyl-1H-purine-2,6(3H, 7H)-dione]"
8,100 to 500,CCCn1c(=O)c2[nH]c(-c3ccc(-n4nc(C)cc4C)nc3)nc2n(CCC)c1=O [Compound 10]
9,100 to 500,CCCn1c(=O)c2[nH]c(-c3ccc(-n4nc(C(=O)OCC)cc4C)nc3)nc2n(CCC)c1=O [Compound 13]
10,100 to 500,"CCCn1c(=O)c2[nH]c(-c3ccc4nncn4c3)nc2n(CCC)c1=O [Compound 14, 1,3-Dipropyl-8-([1,2,4]triazolo[4,3,a]pyridin-6-yl)-1H-purine-2,6(3H, 7H)-dione]"
11,< 100,"CCCn1c(=O)c2[nH]c(-c3ccc(-n4nc(-c5ccccc5)cc4N)nc3)nc2n(CCC)c1=O [Compound 15, 8-(6-(5-Amino-3-phenyl-1H-pyrazol-1-yl)pyridin-3-yl)-1,3-dipropyl-1H-purine-2,6(3H, 7H)-dione]"
12,< 100,"CCCn1c(=O)c2[nH]c(-c3ccc(-n4nc(-c5ccco5)cc4N)nc3)nc2n(CCC)c1=O [Compound 16, 8-(6-(5-Amino-3-(furan-2-yl)-1H-pyrazol-1-yl)pyridin-3-yl)-1,3-dipropyl-1H-purine-2,6(3H, 7H)-dione]"

# — patent publication US7579348B2, “Derivatives of 8-substituted xanthines” (PGxHealth, LLC, priority 2005, dated 2009)
